Experimental findings from patent US8513245B2, “Pharmaceutical composition for reducing the area of myocardial infarction and its use” (Changzhou Hi-Tech District Multiple Dimension Industry …, priority 2007, dated 2013) are described below.

This assay deals with rat model of AMI. Put plainly: Protective effect in rat model of AMI (coronary ligation, NBT staining, infarcted myocardium weight). It counts as in vivo. The following applies: for IMW / IMW/HW (%): SD male rats, 4 h after ligation.

Structures can show the parent of a compound that is named as a salt.

`C[N+](C)(C)C[C@H](O)CC(=O)[O-]` [LC, Levocarnitine]: for the setting “900 mg/kg levocarnitine”, the “reduction of IMW/HW (%) in comparison with solvent control group” value amounted to 22.9%. The “IMW” value worked out at 139 ± 25.9 mg (LC 100 mg/kg i.p.), 141 ± 23.0 mg (LC 300 mg/kg i.p.), 139 ± 24.0 mg (LC 600 mg/kg i.p.) and 129 ± 23.8 mg (LC 900 mg/kg i.p.). For the same compound, the “IMW/HW (%)” value worked out at 16.8 ± 3.33% (LC 100 mg/kg i.p.), 17.2 ± 3.04% (LC 300 mg/kg i.p.), 16.8 ± 3.10 % (LC 600 mg/kg i.p.) and 15.8 ± 3.10 % (LC 900 mg/kg i.p.).
As for `COc1ccc(CN2CCNCC2)c(OC)c1OC` [TMZ, trimetazidine hydrochloride], the “reduction of IMW/HW (%) in comparison with solvent control group” value (9 mg/kg trimetazidine, control 24.5%) was 34.7%. Moreover, the “IMW” value is given as 177 ± 20.2 mg (TMZ 1 mg/kg i.p.), 163 ± 20.2 mg (TMZ 3 mg/kg i.p.), 132 ± 19.1 mg (TMZ 6 mg/kg i.p.) and 125 ± 15.2 mg (TMZ 9 mg/kg i.p.). Besides, the “IMW/HW (%)” value came to 22.8 ± 3.40% (TMZ 1 mg/kg i.p.); 21.0 ± 2.60 % (TMZ 3 mg/kg i.p.); 17.0 ± 3.20 % (TMZ 6 mg/kg i.p.); 16.0 ± 2.50 % (TMZ 9 mg/kg i.p., hydrochloride); 16.0% (TMZ 9 mg/kg i.p., listed as trimetazidine, hydrochloride).
